Results: patent US5716929A (Vertex Pharmaceuticals, Inc., priority 1995, dated 1998)
pIC50, pKi: −log10 of the molar value.

Key:
[1] = biological target: T1, interleukin-1β converting enzyme (ICE) (Homo sapiens, UniProt P29466); assay: Enzyme assay with UV-visible substrate (Succinyl-Tyr-Val-Ala-Asp-pNitroanilide); type: biochemical
T1 sequence (P29466 120-297 limits assumed): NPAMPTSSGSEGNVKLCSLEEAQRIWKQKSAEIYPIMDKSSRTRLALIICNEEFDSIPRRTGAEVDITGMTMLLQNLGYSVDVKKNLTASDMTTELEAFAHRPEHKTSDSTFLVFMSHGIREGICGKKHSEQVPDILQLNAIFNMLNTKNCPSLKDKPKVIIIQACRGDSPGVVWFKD
T1 sequence (P29466 317-404 limits assumed): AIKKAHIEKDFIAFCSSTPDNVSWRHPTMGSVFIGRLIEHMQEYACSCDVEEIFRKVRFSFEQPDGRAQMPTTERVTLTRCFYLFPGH
Method: 1. Enzyme assay with UV-visible substrate
This assay is run using an Succinyl-Tyr-Val-Ala-Asp-pNitroanilide substrate (SEQ ID NO: 1). Synthesis of analogous substrates is described by L. A. Reiter (Int. J. Peptide Protein Res. 43, 87-96 (1994)). The assay mixture contains: […]
The visible ICE assay is run in a 96-well microtiter plate. Buffer, ICE and DMSO (if inhibitor is present) are added to the wells in the order listed. The components are left to incubate at room temperature for 15 minutes starting at the time that all components are present in all wells. The microtiter plate reader is set to incubate at 37° C. After the 15 minute incubation, substrate is added directly to the wells and the reaction is monitored by following the release of the chromophore (pNA) at 405-603 nm at 37° C. for 20 minutes. A linear fit of the data is performed and the rate is calculated in mOD/min. DMSO is only present during experiments involving inhibitors, buffer is used to make up the volume to 100 μl in the other experiments.
(§1) For determination of enzyme inhibition constants (Ki) or the mode of inhibition (competitive, uncompetitive or noncompetitive), the rate data determined in the enzyme assays at varying inhibitor concentrations are computer-fit to standard enzyme kinetic equations (see I. H. Segel, Enzyme Kinetics, Wiley-Interscience, 1975).

[2] = biological target: T1, interleukin-1β converting enzyme (ICE); assay: Enzyme assay with fluorescent substrate (Acetyl-Tyr-Val-Ala-Asp-AMC); type: biochemical; conditions: Example 2 table, read-out: Fluorescence Ki
Method: 2. Enzyme Assay with Fluorescent Substrate
This assay is run essentially according to Thornberry et al. (Nature 356: 768-774 (1992)), using substrate 17 referenced in that article. The substrate is: Acetyl-Tyr-Val-Ala-Asp-amino-4-methylcoumarin (AMC) (SEQ ID NO: 2). The following components are mixed: […]
The assay is run in a 96 well microtiter plate. Buffer and ICE are added to the wells. The components are left to incubate at 37° C. for 15 minutes in a temperature-controlled wellplate. After the 15 minute incubation, the reaction is started by adding substrate directly to the wells and the reaction is monitored @37° C. for 30 minutes by following the release of the AMC fluorophore using an excitation wavelength for 380 nm and an emission wavelength of 460 nm. A linear fit of the data for each well is performed and a rate is determined in fluorescence units per second.
as §1

[3] = system: mature IL-1β, Human Peripheral Blood Mononuclear Cells (PBMC); assay: Cell assay: IL-1β assay with human PBMC or enriched adherent mononuclear cells; type: cell-based; conditions: LPS-stimulated cells, mature IL-1β by ELISA
Text: IL-1β Assay with a Mixed Population of Human Peripheral Blood Mononuclear Cells (PBMC) or Enriched Adherent Mononuclear Cells
Processing of pre-IL-1β by ICE can be measured in cell culture using a variety of cell sources. Human PBMC obtained from healthy donors provides a mixed population of lymphocyte subtypes and mononuclear cells that produce a spectrum of interleukins and cytokines in response to many classes of physiological stimulators. Adherent mononuclear cells from PBMC provides an enriched source of normal monocytes for selective studies of cytokine production by activated cells.
An initial dilution series of test compound in DMSO or ethanol is prepared, with a subsequent dilution into RPMI-10% FBS media (containing 2 mM L-glutamine, 10 mM HEPES, 50 U and 50 ug/ml pen/strep) respectively to yield drugs at 4× the final test concentration containing 0.4% DMSO or 0.4% ethanol. The final concentration of DMSO is 0.1% for all drug dilutions. A concentration titration which brackets the apparent Ki for a test compound determined in an ICE inhibition assay is generally used for the primary compound screen.
We generally test 5-6 compound dilutions and have performed the cellular component of the assay in duplicate, with duplicate ELISA determinations on each cell culture supernatant.
Buffy coat cells isolated from one pint human blood (yielding 40-45 ml final volume plasma plus cells) are diluted with media to 80 ml and LeukoPREP separation tubes (Becton Dickinson) are each overlaid with 10 ml of cell suspension. After 15 min centrifugation at 1500-1800×g, the plasma/media layer is aspirated and then the mononuclear cell layer is collected with a Pasteur pipette and transferred to a 15 ml conical centrifuge tube (Corning). Media is added to bring the volume to 15 ml, gently mix the cells by inversion and centrifuge at 300×g for 15 min. Resuspend the PBMC pellet in a small volume of media, count cells and adjust to 6×10^6 cells/ml.
For the cellular assay, add 1.0 ml of the cell suspension to each well of a 24-well flat bottom tissue culture plate (Corning), 0.5 ml test compound dilution and 0.5 ml LPS solution (Sigma #L-3012; 20 ng/ml solution prepared in complete RPMI media; final LPS concentration 5 ng/ml). The 0.5 ml additions of test compound and LPS are usually sufficient to mix the contents of the wells. Three control mixtures are run per experiment, with either LPS alone, solvent vehicle control, and/or additional media to adjust the final culture volume to 2.0 ml. The cell cultures are incubated for 16-18 hr at 37° C. in the presence of 5% CO2.
At the end of the incubation period, cells are harvested and transferred to 15 ml conical centrifuge tubes. After centrifugation for 10 min at 200×g, supernatants are harvested and transferred to 1.5 ml Eppendorf tubes. It may be noted that the cell pellet may be utilized for a biochemical evaluation of pre-IL-1β and/or mature IL-1β content in cytosol extracts by western blotting or ELISA with pre-IL-1β specific antisera.
PBMC are isolated and prepared as described above. Media (1.0 ml) is first added to wells followed by 0.5 ml of the PBMC suspension. After a one hour incubation, plates are gently shaken and nonadherent cells aspirated from each well. Wells are then gently washed three times with 1.0 ml of media and final resuspended in 1.0 ml media. The enrichment for adherent cells generally yields 2.5-3.0×10^5 cells per well. […]

[4] = Homo sapiens, PBMC, Example 2 table

`CC(=O)N[C@@H](Cc1ccc(O)cc1)C(=O)N[C@H](C(=O)N1CC(OCc2ccccc2)C[C@H]1C(=O)NC(C=O)CC(=O)O)C(C)C` (stereo partly shown) [Compound K, N-[N-Acetyl-tyrosinyl-valinyl-(4-benzyloxy)prolinyl]-3-amino-4-oxobutanoicacid] gave a pKi ([1]; Example 2 table) of 8.00, a pKi [2] of 8.70 and a pIC50 ([3]; Example 2 table) of 4.96 to 5.70.
With “N-(N-Acetyl-tyrosinyl-valinyl-pipecolyl)-3-amino-4-oxobutanoic acid [H]” the pKi ([1]; Example 2 table) was 7.64, the pKi [2] was 8.33 and the pIC50 ([3]; Example 2 table) was 4.96 to 5.22.
For `COc1cccc2nc(C(=O)[C@H](CC(=O)O)NC(=O)[C@@H]3C[C@H](Oc4ccccc4)CN3C(=O)[C@@H](NC(C)=O)C(C)C)oc12` [Compound 86, N-Acetyl-(S)-valinyl-(4-(S)-phenoxy)prolinyl-3(S)-amino-4-(7-methoxybenzoxazol-2-yl)-4-oxo-butanoic acid], the pKi ([1]; Example 6 table) was 6.76 and the pIC50 ([3]; Example 6 table) was 5.40.
`CC(=O)N[C@@H](Cc1ccc(O)cc1)C(=O)N[C@H](C(=O)N1CC(Oc2ccccc2)C[C@H]1C(=O)NC(C=O)CC(=O)O)C(C)C` (stereo partly shown) [I, N-(N-Acetyl-tyrosinyl-valinyl-(4-phenoxyprolinyl))-3-amino-4-oxobutanoicacid] gave a pIC50 [3, 4] of 5.59.
With `CC(=O)N[C@@H](Cc1ccc(O)cc1)C(=O)N[C@H](C(=O)N1CC(O)C[C@H]1C(=O)NC(C=O)CC(=O)O)C(C)C` (stereo partly shown) [J, N-[N-Acetyl-tyrosinyl-valinyl-(4-hydroxyprolinyl)]-3-amino-4-oxobutanoicacid] the pIC50 [3, 4] was 5.15 to 5.30.
